Laboratory results taken from patent publication US9724331B2, “Use of maleimide derivatives for preventing and treating leukemia” (CENTOGENE AG, priority 2012, dated 2017).

Columns and labels:
Format in all cases: cell-based, human
RS4;11 cells [1] = experiment: Apoptosis and necrosis, Annexin V FITC / PI flow cytometry
Description: (§1) Apoptosis and necrosis were analyzed by staining the cells with Annexin V FITC (BD Biosciences, Heidelberg, Germany) and propidium iodide (PI) (Sigma Aldrich, St. Louis, USA). Results were assessed by flow cytometry.
(§2) (A) Cells were treated with PDA-66 for up to 72 h and stained with Annexin V FITC and Propidium iodide (PI). Rates of early apoptotic (FITC^+, PI^−) and late apoptotic and necrotic (FITC^+, PI^+) cells were measured by flow cytometry. Significant induction of apoptosis could be observed in all cell lines after 48 h of incubation as well as tendential induction of necrosis at both points of time. […] (B) Induction of apoptosis was confirmed by Western blot. Cells were treated with different concentrations of PDA-66 and total cell lysates (25 μg) were analyzed by Western blot to detect cleavage of Caspase 3, 7 and PARP. GAPDH was used as loading control.
(§3) More specifically, 5×10^5 cells were harvested and washed twice (180 g, 10 min, 4° C.) with PBS. After resuspending the cells in 100 μl of binding buffer (1×) 4 μl of Annexin V FITC were added and incubated for 15 min at room temperature. Following addition of 400 μl binding buffer for a final volume of 500 μl the cells were stained with PI (0.6 μg/ml) immediately before measurement. As controls unstained and single stained cells were included in each experiment. Measurements were performed using FACSCalibur (Becton and Dickinson, Heidelberg, Germany) and data analyses were carried out with CellQuest software (Becton and Dickinson, Heidelberg, Germany).

SEM cells [2] = experiment: as above
Description: as §1, §2, §3

Jurkat cells [3] = experiment: as above
Description: as §1, §2, §3

Molt-4 cells [4] = experiment: as above
Description: as §1, §2, §3

RS4;11 cells [5] = experiment: Metabolic activity, WST-1 assay; details: 0.5 μM PDA-66, 72 h, mean±SD
Description: (§4) The human B-ALL cell lines SEM, RS4;11 and the human T-ALL cell lines Jurkat and Molt-4 were purchased from DSMZ (Germany) and cultured according to manufacturer's protocol. The corresponding medium was supplemented with 10% heat-inactivated fetal bovine serum (PAA, Pasching, Austria) and 1% penicillin and streptomycin (Biochrom AG, Berlin, Germany). The Molt-4 cells were cultured with medium supplemented with 20% heat-inactivated fetal bovine serum. All cells were maintained at 37° C. in 5% CO2. Cells (5×10^5/well) were seeded in 24 well plates (Nunc, Langenselbold, Germany) and incubated for up to 72 h with PDA-66. Treated cells were harvested after 4, 24, 48 and 72 h and used for further analyses.
(§5) Cell counts were determined using the trypan blue staining. Metabolic activity was analyzed by using tetrazolium compound WST-1 (Roche, Mannheim, Germany). In brief, triplicates of cells (5×10^4/well) were seeded in 96 well plates, treated with PDA-66 and incubated with 15 μl WST-1 for up to 4 h. The mitochondrial dehydrogenases reduce WST-1 to soluble formazan and cause a change of color, which correlates with the amount of metabolically active cells. Absorbance at 450 nm and a reference wavelength at 620 nm were determined by an ELISA Reader (Anthos, Krefeld, Germany). The absorbance of culture medium with supplemented WST-1 in the absence of cells was used as background control.
(§6) The influence of PDA-66 on proliferation in ALL cell lines SEM, RS4;11, Jurkat and Molt-4 was analyzed by incubation with different concentrations of the drug (0.001 μM to 10 μM). Metabolic activity was determined using WST-1 assay. […] Results are summarized in FIG. 2, whereby the individual nine bars for each set of experiments represent, from left to right, DMSO, 0.001 μM, 0.01 μM, 0.1 μM, 0.25 μM, 0.5 μM, 1.0 μM, 5 μM and 10 μM. After 48 h of incubation an inhibition of proliferation could be observed, but was more distinct after 72 h.

SEM cells [6] = experiment: Metabolic activity, WST-1 assay
Description: as §4, §5, §6

Jurkat cells [7] = experiment: Metabolic activity, WST-1 assay
Description: as §4, §5, §6

Molt-4 cells [8] = experiment: Metabolic activity, WST-1 assay; details: 0.5 μM PDA-66, 72 h, mean±SD
Description: as §4, §5, §6

[9] = system: cleavage of Caspase 3, 7 and PARP; experiment: Western blot, induction of apoptosis; details: all cell lines (SEM shown exemplarily); 48 h after addition
Description: as §2
Additionally, the effect of PDA-66 on apoptosis was determined by and western blot. For protein extraction cells were washed twice in PBS and lysed with RIPA buffer (50 mM Tris HCl pH 7.4; 150 mM NaCl; 0.1% SDS and 1% NP40) including protease and phosphatase inhibitors (Roche Applied Science, Mannheim, Germany). Samples were incubated for 20 min at 4° C. and frozen at −20° C. Cell extracts were thawed and centrifuged at 12000 g for 10 min at 4° C. Total protein concentration of supernatants was determined using Bio-Rad Protein Assay (Bio-Rad, München, Germany).
Equal amounts of protein samples were separated by SDS-polyacrylamid gel (8% or 15%) electrophoresis and transferred onto a PVDF membrane (Amersham Biosciences, Buckinghamshire, UK). […]

## CC(=O)c1ccc(C2=C(c3c(C)[nH]c4ccccc34)C(=O)N(C)C2=O)cc1 [PDA-66, 3-(4-Acetylphenyl)-1-methyl-4-(2-methyl-1H-indol-3-yl)-1H-pyrrole-2,5-dione]
RS4;11 cells [1]; 1 μM PDA-66, 48 h
  necrosis: tendential increase
RS4;11 cells [1]; 1 μM PDA-66, 48 h, mean±SD
  apoptosis (early apoptotic cells, FITC+, PI−): 7.4±1.1%
RS4;11 cells [1]; 1 μM PDA-66, 72 h, mean±SD
  apoptosis (early apoptotic cells, FITC+, PI−): 6.4±3.6%
  necrosis rate (late apoptotic and necrotic cells, FITC+, PI+): 26.5±10.2%
SEM cells [2]; 1 μM PDA-66, 48 h
  necrosis: tendential increase
SEM cells [2]; 1 μM PDA-66, 48 h, mean±SD
  apoptosis (early apoptotic cells, FITC+, PI−): 10.5±1.3%
SEM cells [2]; 1 μM PDA-66, 72 h, mean±SD
  apoptosis (early apoptotic cells, FITC+, PI−): 5.6±1.6%
  necrosis rate (late apoptotic and necrotic cells, FITC+, PI+): 27.8±5.81%
Jurkat cells [3]; 1 μM PDA-66, 48 h
  necrosis: tendential increase
Jurkat cells [3]; 1 μM PDA-66, 48 h, mean±SD
  apoptosis (early apoptotic cells, FITC+, PI−): 8.3±1.9%
Jurkat cells [3]; 1 μM PDA-66, 72 h, mean±SD
  apoptosis (early apoptotic cells, FITC+, PI−): 6.1±0.7%
  necrosis rate (late apoptotic and necrotic cells, FITC+, PI+): 28.0±13.4%
Molt-4 cells [4]; 1 μM PDA-66, 48 h
  necrosis: tendential increase
Molt-4 cells [4]; 1 μM PDA-66, 48 h, mean±SD
  apoptosis (early apoptotic cells, FITC+, PI−): 16.3±5.1%
Molt-4 cells [4]; 1 μM PDA-66, 72 h, mean±SD
  apoptosis (early apoptotic cells, FITC+, PI−): 20.1±6.6%
  necrosis rate (late apoptotic and necrotic cells, FITC+, PI+): 46.7±15.6%
RS4;11 cells [5]
  metabolic activity compared to control cells treated with DMSO: 33.3±4.4%
SEM cells [6]; Homo sapiens, SEM cells, 72 h of incubation
  IC50: 410 nM
SEM cells [6]; SEM, 0.5 μM PDA-66, 72 h, mean±SD
  metabolic activity compared to control cells treated with DMSO: 35.7±8.3%
Jurkat cells [7]; Homo sapiens, Jurkat cells, 72 h of incubation
  IC50: 1280 nM
Jurkat cells [7]; Jurkat, 0.5 μM PDA-66, 72 h, mean±SD
  metabolic activity compared to control cells treated with DMSO: 66.7±8%
Molt-4 cells [8]
  metabolic activity compared to control cells treated with DMSO: 35.5±17%
[9]
  cleavage of caspases 3 and 7 and PARP: induced cleavage
